Assay results taken from the SangsterLogP compilation.

| logP | SMILES |
| --- | --- |
| 3.26 | Nc1ccc(Br)c2ccccc12 |
| 5.2 | Clc1ccc2cc3ccccc3cc2c1 |
| 4.69 | Cc1cccc(C)c1C(=O)c1c(C)cccc1C |
| 1.84 | Cc1nc2ccccc2[nH]1 |
| 0.77 | CCc1ncc[nH]1 |
| 6.54 | CCc1cccc(CC)c1C(=O)c1c(CC)cccc1CC |
| 4.01 | Nc1ccc2ccc3cccc4ccc1c2c34 |
| 1.3 | CCCc1ncc[nH]1 |
| 4.5 | CCCCCc1ccc(C(=O)O)cc1 |
| 3.87 | Cc1ccccc1C(=O)c1ccccc1C |
| 2.95 | Cc1ccc(C(=O)O)cc1C |
| 5.56 | CCCCCCCc1ccc(C(=O)O)cc1 |
| 3.65 | Cc1cccc(C)c1C(=O)c1ccccc1 |

| SMILES | logP |
| --- | --- |
| O=[N+]([O-])c1cccc2ccccc12 | 3.06 |
| CCc1c2ccccc2cc2ccccc12 | 5.52 |
